Measured values from ChEMBL document CHEMBL5370630, “Design, Synthesis, and Biological Evaluation of SSE1806, a Microtubule Destabilizer That Overcomes Multidrug Resistance” (2023).
Activity calls are given as the source filed them. No cut-off for these calls is given here.

Assays:
HCT-116 [1] = experiment: Antiproliferative activity against human HCT-116 cells incubated for 72 hrs by SRB proliferation assay; assay type: functional
CAL-51 [2] = experiment: Antiproliferative activity against human CAL-51 cells incubated for 72 hrs by SRB proliferation assay; assay type: functional
CAL-51 [3] = experiment: Induction of mitotic arrest in human CAL-51 cells assessed as upregulation of histone H3 phosphorylation at S10 residue at 25 uM incubated for 8 hrs by dot blot assay; assay type: functional, cell-based
KB 3-1 [4] = experiment: Induction of apoptosis in human KB-3-1 cells assessed as increase in PARP cleavage at 100 uM incubated for 24 hrs by Western blot analysis; assay type: functional, cell-based
KB-V1 [5] = experiment: Cytotoxicity against multidrug resistant human KB-V1 cells assessed as inhibition of cell proliferation; assay type: functional
KB 3-1 [6] = experiment: Cytotoxicity against human KB-3-1 cells assessed as inhibition of cell proliferation; assay type: functional
[7] = Resistance index, ratio of GI50 for multidrug resistant human KB-V1 cells to GI50 for human KB-3-1 cells; assay type: functional
Tubulin (Homo sapiens) [8] = molecular target: T1, Tubulin (Homo sapiens) (UniProt P68371+Q9H4B7+P0DPH7+P68366+Q13509+Q71U36+P04350+Q3ZCM7+P07437+P68363+Q9BQE3+Q6PEY2+Q13885+Q9BVA1+Q9BUF5); experiment: Inhibition of microtubule polymerization in human HCT-116 cells assessed as decrease in polymeric tubulin level at 1.25 to 5 times GI50 incubated for 5 mins by immunoblot analysis; assay type: cell-based
Tubulin (Homo sapiens) [9] = molecular target: T1, Tubulin (Homo sapiens); experiment: Inhibition of microtubule re-polymerization in human A549 cells at 5 times GI50 preincubated for 30 min on ice followed by incubation at 37 degreeC for 10 mins by immunofluorescence analysis; assay type: cell-based; details: time 40.0 min
Tubulin (Homo sapiens) [10] = molecular target: T1, Tubulin (Homo sapiens); experiment: Inhibition of microtubule polymerization in human HCT-116 cells assessed as increase in soluble tubulin level at 1.25 to 5 times GI50 incubated for 5 mins by immunoblot analysis; assay type: cell-based
HCC1954 = experiment: Antitumor activity against human HCC1954 cells by MTS assay; assay type: functional
[11] = Anticancer activity against human colon cancer organoids assessed as inhibition of cell viability measured after 4 days by Cell Titer Glo assay; assay type: functional; details: Colon cancer organoid, 96 h, time 4 day
BT-549 = experiment: Antitumor activity against human BT-549 cells by MTS assay; assay type: functional
A549 [12] = experiment: Induction of mitotic cell arrest in human A549 cells assessed as chromosome misalignment at 5 times GI50 incubated for 24 hrs by immunofluorescence based confocal microscopic analysis; assay type: functional
A549 [13] = experiment: Induction of mitotic cell arrest in human A549 cells assessed as defective spindles at 5 times GI50 incubated for 24 hrs by immunofluorescence based confocal microscopic analysis; assay type: functional
KB-V1 [14] = experiment: Induction of apoptosis in multidrug resistant human KB-V1 cells assessed as increase in PARP cleavage at 1.25 to 5 uM incubated for 24 hrs by Western blot analysis; assay type: functional, cell-based; details: dose 1.25-5 µM
KB 3-1 [15] = experiment: Induction of apoptosis in human KB-3-1 cells assessed as increase in PARP cleavage at 1.25 to 5 uM incubated for 24 hrs by Western blot analysis; assay type: functional, cell-based; details: dose 1.25-5 µM
A549 [16] = experiment: Induction of mitotic arrest in human A549 cells assessed as increase in mitotic index by measuring histone H3 phosphorylation at S10 residue at 5 times GI50 incubated for 24 hrs by immunofluorescence analysis; assay type: functional, cell-based
HCT-116 [17] = experiment: Induction of mitotic arrest in human HCT-116 cells assessed as upregulation of histone H3 phosphorylation at S10 residue at 1.25 to 5 times GI50 measured for 8 to 16 hrs by Western blot analysis; assay type: functional, cell-based; details: time 8-16 hrs
KB-V1 [18] = experiment: Inhibition of P-gp in human KB-V1 cells at 5 uM by calcein AM efflux assay; assay type: functional, cell-based
HCT-116 [19] = experiment: Induction of cell cycle arrest in human HCT-116 cells accumulation of cells at G2/M phase incubated for 12 hrs by PI staining based flow cytometry analysis; assay type: functional
[20] = Anticancer activity against mouse colon cancer organoids expressing Apc fl/fl-Kras G12D-Tp53 KO-Smad4 KO assessed as inhibition of cell viability measured after 4 days by Cell Titer Glo assay; assay type: functional; details: Colon cancer organoid, 96 h, time 4 day
MCF7 = experiment: Antitumor activity against human MCF7 cells by MTS assay; assay type: functional
K562 = experiment: Antitumor activity against human K562 cells by MTS assay; assay type: functional
MV4-11 = experiment: Antitumor activity against human MV4-11 cells by MTS assay; assay type: functional
HCT-116 [21] = experiment: Induction of apoptosis in human HCT-116 cells assessed as increase in PARP cleavage at 1.25 to 5 times GI50 incubated for 24 to 36 hrs by Western blot analysis; assay type: functional, cell-based; details: time 24-36 hrs
HCT-116 [22] = experiment: Induction of apoptosis in human HCT-116 cells assessed as increase in p53 expression at 1.25 to 5 times GI50 incubated for 24 to 36 hrs by Western blot analysis; assay type: functional, cell-based; details: time 24-36 hrs
HCT-116 [23] = experiment: Induction of apoptosis in human HCT-116 cells assessed as increase in apoptotic cell death at 2.5 to 5 times GI50 incubated for 24 hrs by Annexin V/PI staining based flow cytometric analysis; assay type: functional
KB 3-1 [24] = experiment: Antitumor activity against human KB-3-1 cells by MTS assay; assay type: functional
MOLM-13 = experiment: Antitumor activity against human MOLM-13 cells by MTS assay; assay type: functional
Tubulin (Homo sapiens) [25] = molecular target: T1, Tubulin (Homo sapiens); experiment: Inhibition of microtubule polymerization (unknown origin) at 10 uM incubated for 1 hr by turbidimetric assay relative to control; assay type: protein-complex assay

O=C1CCCC2=C1C(c1ccccc1)c1cc3c(cc1N2)OCCO3 (stereo unspecified)
GI50 (HCT-116 [1]): > 100 µM
GI50 (CAL-51 [2]): 9.53 µM
Activity (CAL-51 [3]): Active

O=C1CCCC2=C1C(c1cccc(Cl)c1)c1cc3c(cc1N2)OCCO3 (stereo unspecified)
GI50 (HCT-116 [1]): 18.4 µM
GI50 (CAL-51 [2]): 12.6 µM
Activity (CAL-51 [3]): Active

O=C1CCCC2=C1C(c1ccc(F)c(F)c1)c1cc3c(cc1N2)OCCO3 (stereo unspecified)
GI50 (HCT-116 [1]): 5.44 µM
GI50 (CAL-51 [2]): 7.94 µM

CN1C2=C(C(=O)CCC2)C(c2ccc(Br)cc2)c2cc3c(cc21)OCCO3 (stereo unspecified)
GI50 (HCT-116 [1]): 17.3 µM
GI50 (CAL-51 [2]): 23.7 µM

O=C1CCCC2=C1C(c1ccco1)c1cc3c(cc1N2)OCCO3 (stereo unspecified)
GI50 (HCT-116 [1]): 9.85 µM
GI50 (CAL-51 [2]): 11.8 µM
Activity (CAL-51 [3]): Active

CC(=O)O[C@H]1C(=O)[C@@]2(C)[C@H]([C@H](OC(=O)c3ccccc3)[C@]3(O)C[C@H](OC(=O)[C@H](O)[C@@H](NC(=O)c4ccccc4)c4ccccc4)C(C)=C1C3(C)C)[C@]1(OC(C)=O)CO[C@@H]1C[C@@H]2O [PACLITAXEL]
Activity (KB 3-1 [4]): Active
GI50 (KB-V1 [5]): 0.432 µM
GI50 (KB 3-1 [6]): 0.00223 µM
RatioGI50 [7]: 193.51

COc1cc(C2C3=C(CCCC3=O)Nc3cc4c(cc32)OCCO4)cc(OC)c1OC (stereo unspecified)
GI50 (HCT-116 [1]): 3.33 µM
GI50 (CAL-51 [2]): 4.15 µM
Activity (CAL-51 [3]): Active

COc1cc([C@@H]2c3cc4c(cc3[C@H](O)[C@H]3COC(=O)[C@H]23)OCO4)cc(OC)c1OC [PODOFILOX]
GI50 (HCT-116 [1]): 0.013 µM
GI50 (CAL-51 [2]): 0.013 µM

COc1ccc(OC)c(C2C3=C(CCCC3=O)Nc3cc4c(cc32)OCCO4)c1 (stereo unspecified)
GI50 (HCT-116 [1]): 12.2 µM
GI50 (CAL-51 [2]): 20.9 µM

COC(=O)Nc1nc2cc(C(=O)c3cccs3)ccc2[nH]1 [NOCODAZOLE]
GI50 (HCT-116 [1]): 0.24 µM
inhibition (Tubulin (Homo sapiens) [8]): Active
GI50 (CAL-51 [2]): 0.209 µM
inhibition (Tubulin (Homo sapiens) [9]): Active
inhibition (Tubulin (Homo sapiens) [10]): Active

COc1cccc(C2C3=C(CCCC3=O)Nc3cc4c(cc32)OCCO4)c1 (stereo unspecified)
GI50 (HCT-116 [1]): 11.9 µM
GI50 (CAL-51 [2]): 12.7 µM
Activity (CAL-51 [3]): Active

O=C1CCCC2=C1C(c1cccc(F)c1F)c1cc3c(cc1N2)OCCO3 (stereo unspecified)
GI50 (HCT-116 [1]): 4.64 µM
GI50 (CAL-51 [2]): 4.63 µM

CC[C@]1(O)C[C@H]2CN(CCc3c([nH]c4ccccc34)[C@@](C(=O)OC)(c3cc4c(cc3OC)N(C=O)[C@H]3[C@@](O)(C(=O)OC)[C@H](OC(C)=O)[C@]5(CC)C=CCN6CC[C@]43[C@@H]65)C2)C1 [VINCRISTINE]
GI50 (HCT-116 [1]): 0.006 µM
GI50 (CAL-51 [2]): 0.089 µM

O=C1CCCC2=C1C(c1cccc([N+](=O)[O-])c1)c1cc3c(cc1N2)OCCO3 (stereo unspecified)
GI50 (HCC1954): 21.2 µM
GI50 [11]: 11.6 µM
GI50 (BT-549): 7.05 µM
Activity (A549 [12]): Active
Activity (A549 [13]): Active
Activity (KB-V1 [14]): Active
Activity (KB 3-1 [15]): Active
Activity (A549 [16]): Active
Activity (HCT-116 [17]): Active
GI50 (HCT-116 [1]): 2.01 µM
inhibition (KB-V1 [18]): inactive
Activity (HCT-116 [19]): Dose-Dependent Effect
GI50 [20]: 7.16 µM
inhibition (Tubulin (Homo sapiens) [8]): Active
GI50 (CAL-51 [2]): 3.3 µM
inhibition (Tubulin (Homo sapiens) [9]): Active
GI50 (MCF7): 5.02 µM
GI50 (K562): 17.7 µM
GI50 (MV4-11): 9.45 µM
Activity (HCT-116 [21]): Active
Activity (CAL-51 [3]): Active
Activity (HCT-116 [22]): Active
GI50 (KB-V1 [5]): 1.74 µM
Activity (HCT-116 [23]): Active
GI50 (KB 3-1 [6]): 1.29 µM
GI50 (KB 3-1 [24]): 1.29 µM
GI50 (MOLM-13): 4.23 µM
inhibition (Tubulin (Homo sapiens) [10]): Active
inhibition (Tubulin (Homo sapiens) [25]): Active
RatioGI50 [7]: 1.35
